Data as given in patent US20230137092A1, “Composition and Method for the Treatment and Prevention of Cardiac, Pulmonary, Dermal, and Renal Fibrosis” (EMERALD HEALTH PHARMACEUTICALS INC., priority 2020, published 2023).

How the values were obtained:
[1] = system: Ang II-induced cardiac fibrosis; assay: Ang II-induced cardiac fibrosis, preventive model: collagen by Sirius red/fast green in left ventricle; format: in vivo, mouse; conditions: vs Ang II group
Protocol: Ang II causes myocardial fibrosis in a short period of time (Sopel M et al., 2011, Lab. Invest., 91:565-578) characterized by collagen accumulation and after 14 days of Ang II infusion (Sigusch H H et al., 1996, Cardiovascular Research, 31:546-554). […] Subcutaneous infusion of Ang II using ALZET® osmotic pumps was used to study compound preventive effects. ALZET® osmotic minipumps (Model #2004, Charles Rives, Barcelona, Spain) delivering of Ang II (1.0 mg kg^− min^−) (Sigma-Aldrich, Madrid, Spain) for two weeks. Compound treatment was daily administered in parallel, one day before of the implantation of the subcutaneous pump, beneath the mid scapular loose skin and consisted of daily oral gavage of compound (20 mg/kg) or vehicle (Corn Oil/Maisine CC, 1/1). Mice were acclimated to manipulators for a week previously to the experiments in order to reduce stress and allow the detection of subtle changes in behavior by researchers. […]
Interstitial heart fibrosis was determined by the measurement of Sirius red/fast green staining (collagen content) (FIG. 1A). […]
Mice treated with Ang II presented an increase in the thickness of aortic media layer by collagen accumulation. […] Three-four random fields of each heart were photographed by standard brightfield microscopy and digitalized using a Leica DFC420c camera and analyzed using Fiji software (rsb.info.nih.gov/ij/).

[2] = system: Ang II-induced renal fibrosis; assay: Ang II-induced renal fibrosis, preventive model, Sirius Red; format: in vivo, mouse; conditions: Ang II 1.0 mg kg^- min^- two weeks, 20 mg/kg oral gavage
Protocol: Ang II is the main peptide of the renin angiotensin system and a renal growth factor, inducing hyperplasia/hypertrophy depending on the cell type, and it induces renal fibrosis. Renal fibrosis was induced in mice by infusion of Ang II (1.0 mg kg^− min^−) for two weeks. The treatment with the compound of Formula (VIII) by oral gavage was the same as describe in Example 2. After two weeks of treatment, the mice were sacrificed under ether anesthesia. Kidney samples were collected and fixed in 4% paraformaldehyde and embedded in paraffin. The paraffin sections (5 μm) were stained with Sirius Red for evaluation of fibrosis. Subcutaneous Ang II infusion induced a significant increase of collagen content and in the mice treated with compound, the induction of fibrosis in the kidney is prevented (FIG. 10).

[3] = system: Ang II-induced pulmonary fibrosis; assay: Ang II therapeutic model: lung fibrosis, Masson's trichrome, Ashcroft score; format: in vivo, mouse; conditions: Ang II four weeks, 20 mg/kg oral last two weeks, ###p<0.001 versus Ang II group
Protocol: Lung fibrosis was induced in mice by infusion of Ang II (500 ng kg^− min^−) for four weeks. The treatment with the compound of Formula (VIII) by oral gavage was the same as describe in Example 9. After two weeks of treatment, the mice were sacrificed under ether anesthesia. Lung samples were collected and fixed in 4% paraformaldehyde and embedded in paraffin. The paraffin sections (5 μm) were stained with Masson's trichrome (Merck Millipore, Darmstadt, Germany) for evaluation of fibrosis. Three-four random fields of each lung biopsy were photographed, digitalized using a Leica DFC420c camera and analyzed using Image J software in a blinded manner by two independent observers. The Ashcroft score was used to determine the degree of fibrosis in lung specimens as previously described (Ashcroft T et al., 1988, Clin. Pathol., 41:467-470; Hubner R H et al., 2008, Biotechniques, 44:507-511). Subcutaneous Ang II infusion induced pulmonary fibrosis which is prevented with compound (FIG. 15).

ERK1+2 = assay: Ang II-induced ERK1+2 phosphorylation in hICF, immunoblot; format: cell-based, human; conditions: hICF preincubated with compound, Ang II for 30 minutes
Protocol: The effect of compound of Formula (VIII) on Ang II signaling pathways in hICF was investigated. ERK1+2 and NFAT activation are two pathways activated by Ang-II (Wakatsuki et al., 2004, Trends Biochem Sci, 29:609-617). hICF were preincubated with compound of Formula (VIII), treated with Ang II for 30 minutes, washed with PBS and proteins extracted in 50 μL of lysis buffer (50 mM Tris-HCl pH 7.5, 150 mM NaCl, 1% (v/v) NP-40, 10% (v/v) glycerol, 10 mM NaF, 1 mM Na3VO4, aprotinin (10 μg/ml), leupeptine (10 μg/ml), pepstatin (1 μg/ml) and 1 mM PMSF saturated). Separated proteins in 10% SDS/PAGE gels were transferred to PVDF membranes and blocked in TBS solution containing 0.1% Tween 20 and 5% bovine serum albumin (BSA) for 1 hour at room temperature. Immunodetection of specific proteins was carried out by incubation with primary antibodies against p-ERK (1:1000; #4695 Cell Signaling Technology) and ERK (1:1000, M5670, Sigma). Membranes were incubated with horseradish peroxidase-conjugated secondary antibody was added and proteins detected by chemiluminescence system (GE Healthcare Europe GmbH). Compound of Formula (VIII) inhibited Ang II-induced ERK1+2 phosphorylation (FIG. 16B).

## C=C(C)C1CCC(C)=C[C@H]1C1=C(O)C(=O)C(CCCCC)=C(NCc2ccccc2)C1=O (some centres unmarked) [Formula (VIII)]
[1]; Ang II 1.0 mg kg^- min^- two weeks, 20 mg/kg daily oral gavage
  collagen content accumulation on interstitial area of left ventricle: significantly (p<0.001) reduced
[1]; Ang II two weeks, 20 mg/kg oral
  perivascular collagen content (perivascular myocardial area): significant reduction
[2]
  induction of fibrosis in the kidney (collagen content): prevented
[3]
  lung fibrosis (Ashcroft score): reduced
ERK1+2
  Ang II-induced ERK1+2 phosphorylation: inhibited
